Reference: patent US20220306737A1, “USE OF HIGH-AFFINITY, LIGAND-BLOCKING, HUMANIZED ANTI-T-CELL IMMUNOGLOBULIN DOMAIN AND MUCIN DOMAIN-3 (TIM-3) IGG4 ANTIBODY FOR THE TREATMENT OF MYELOFIBROSIS” (Novartis AG, priority 2019, published 2022)
“Also recorded” adds a separate entry of the source.

Key:
JAK3 = JAK3 (Homo sapiens, UniProt P52333); conditions: at clinically relevant concentrations; cited from earlier work
[1] = test system: broad panel of 26 kinases; conditions: tested at 200 nM; cited from earlier work
[2] = cited from earlier work
[3] = CMBG453X2101 clinical study in advanced solid tumors, safety; type: in vivo, human; conditions: any dose up to 1200 mg IV Q2W or Q4W
Protocol: (§1) In this study, the selection of the MBG453 dose and regimen is based on the currently available clinical safety, efficacy, PK and PK/PD modeling information from the CMBG453X2101 in advanced solid tumors and CPDR001X2105 in AML and MDS trials for MBG453. For solid tumor subjects, both 800 mg IV Q4W and 400 mg IV every 2 weeks (Q2W) are predicted to give sustained target (TIM-3) occupancy of 90% in tumor in >90% of subjects. […] MBG453 single agent is also being evaluated in AML/MDS subjects in the CPDR001X2105 study with Q4W and Q2W regimens. The recommended dose in AML/MDS has not yet been determined, however it is not expected to be different from solid tumors, based on preliminary PK and safety data.

[4] = CPDR001X2105 clinical study in AML/MDS subjects, tolerability; type: in vivo, human; conditions: 400 mg IV Q2W and 800 mg IV Q4W
Protocol: as §1

[5] = MBG453 phase I/II development, impact on hematopoiesis; type: in vivo, human

Sequence of JAK3 (P52333 whole entry, species assumed): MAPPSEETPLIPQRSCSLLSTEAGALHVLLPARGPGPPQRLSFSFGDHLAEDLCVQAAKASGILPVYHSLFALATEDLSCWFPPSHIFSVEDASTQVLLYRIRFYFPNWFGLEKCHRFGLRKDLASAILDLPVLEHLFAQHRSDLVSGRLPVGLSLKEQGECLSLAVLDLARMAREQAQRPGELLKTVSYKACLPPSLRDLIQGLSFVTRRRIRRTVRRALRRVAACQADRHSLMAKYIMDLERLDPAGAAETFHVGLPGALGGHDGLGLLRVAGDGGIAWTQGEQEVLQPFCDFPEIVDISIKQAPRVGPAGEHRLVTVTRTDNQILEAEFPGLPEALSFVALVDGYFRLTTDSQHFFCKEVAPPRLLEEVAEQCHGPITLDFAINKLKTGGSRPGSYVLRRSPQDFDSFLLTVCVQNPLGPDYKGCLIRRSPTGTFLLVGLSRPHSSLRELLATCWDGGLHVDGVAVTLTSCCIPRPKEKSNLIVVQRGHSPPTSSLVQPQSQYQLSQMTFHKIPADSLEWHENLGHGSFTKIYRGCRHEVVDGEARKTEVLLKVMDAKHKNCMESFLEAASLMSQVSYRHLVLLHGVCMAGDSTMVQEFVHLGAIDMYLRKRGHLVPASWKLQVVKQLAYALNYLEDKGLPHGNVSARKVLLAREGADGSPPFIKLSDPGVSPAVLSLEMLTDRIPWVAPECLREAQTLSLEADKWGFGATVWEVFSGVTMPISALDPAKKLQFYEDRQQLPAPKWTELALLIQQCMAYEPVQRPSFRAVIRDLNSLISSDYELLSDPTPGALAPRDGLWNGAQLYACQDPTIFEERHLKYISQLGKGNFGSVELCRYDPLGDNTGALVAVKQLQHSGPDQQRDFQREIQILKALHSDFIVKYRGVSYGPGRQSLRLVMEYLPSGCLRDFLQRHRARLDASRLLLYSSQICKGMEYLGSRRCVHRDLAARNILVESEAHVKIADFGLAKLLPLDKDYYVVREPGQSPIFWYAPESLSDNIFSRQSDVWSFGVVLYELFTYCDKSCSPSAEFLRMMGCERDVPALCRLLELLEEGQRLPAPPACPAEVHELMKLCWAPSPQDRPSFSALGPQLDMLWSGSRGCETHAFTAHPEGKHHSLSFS

Compound: N#CC[C@H](C1CCCC1)n1cc(-c2ncnc3[nH]ccc23)cn1 [Ruxolitinib, (R)-3-(4-(7H-pyrrolo[2,3-d]pyrimidin-4-yl)-1H-pyrazol-1-yl)-3-cyclopentylpropanenitrile]
- inhibition of JAK3 (JAK3): does not inhibit
- inhibition of a broad panel of 26 kinases [1]: < 30%
- effect on anemia ([2]; MF patients): does not improve
- effect on splenomegaly (spleen size) and constitutional symptoms of MF ([2]; MF patients): highly effective; also recorded: improvements
- hematoxicity ([2]; human, in vivo): partial transient hematoxicity

Compound: MBG453: anti-TIM-3 antibody disclosed in US Patent Application Publication No. 2015/0218274
- safety signal [3]: No significant safety signal
- tolerability [4]: well tolerated
- impact on hematopoiesis [5]: has not been found to have a negative impact on hematopoiesis
